This passage reports Kd, EC50 and IC50 results from ChEMBL document CHEMBL4028910, “Discovery of Small-Molecule Inhibitors of Ubiquitin Specific Protease 7 (USP7) Using Integrated NMR and in Silico Techniques” (J Med Chem, 2017).

A value given as a limit tells only on which side of the number the result lay.

A word on the Kd: it is the equilibrium constant for the complex coming apart. As usually defined, the EC50 is the concentration needed to bring the measured effect to its halfway point. In general, IC50 refers to the concentration that gives 50% inhibition.

The target in the first assay is T1, Ubiquitin carboxyl-terminal hydrolase 7 (Homo sapiens, UniProt Q93009). As to the kind of experiment: Binding affinity to human His-tagged and [15N-13C-2H], delta1[13CH3]-Ile, [13CH3]-Leu/Val and [13CH3]-Met-labeled USP7-catalytic domain (208 to 554 residues) expressed in Escherichia coli Rosetta 2 (DE3) cells by 2D[1H-15N]-based TROSY spectrum NMR analysis.
T1 sequence (Q93009 whole entry, the tested form may be a part): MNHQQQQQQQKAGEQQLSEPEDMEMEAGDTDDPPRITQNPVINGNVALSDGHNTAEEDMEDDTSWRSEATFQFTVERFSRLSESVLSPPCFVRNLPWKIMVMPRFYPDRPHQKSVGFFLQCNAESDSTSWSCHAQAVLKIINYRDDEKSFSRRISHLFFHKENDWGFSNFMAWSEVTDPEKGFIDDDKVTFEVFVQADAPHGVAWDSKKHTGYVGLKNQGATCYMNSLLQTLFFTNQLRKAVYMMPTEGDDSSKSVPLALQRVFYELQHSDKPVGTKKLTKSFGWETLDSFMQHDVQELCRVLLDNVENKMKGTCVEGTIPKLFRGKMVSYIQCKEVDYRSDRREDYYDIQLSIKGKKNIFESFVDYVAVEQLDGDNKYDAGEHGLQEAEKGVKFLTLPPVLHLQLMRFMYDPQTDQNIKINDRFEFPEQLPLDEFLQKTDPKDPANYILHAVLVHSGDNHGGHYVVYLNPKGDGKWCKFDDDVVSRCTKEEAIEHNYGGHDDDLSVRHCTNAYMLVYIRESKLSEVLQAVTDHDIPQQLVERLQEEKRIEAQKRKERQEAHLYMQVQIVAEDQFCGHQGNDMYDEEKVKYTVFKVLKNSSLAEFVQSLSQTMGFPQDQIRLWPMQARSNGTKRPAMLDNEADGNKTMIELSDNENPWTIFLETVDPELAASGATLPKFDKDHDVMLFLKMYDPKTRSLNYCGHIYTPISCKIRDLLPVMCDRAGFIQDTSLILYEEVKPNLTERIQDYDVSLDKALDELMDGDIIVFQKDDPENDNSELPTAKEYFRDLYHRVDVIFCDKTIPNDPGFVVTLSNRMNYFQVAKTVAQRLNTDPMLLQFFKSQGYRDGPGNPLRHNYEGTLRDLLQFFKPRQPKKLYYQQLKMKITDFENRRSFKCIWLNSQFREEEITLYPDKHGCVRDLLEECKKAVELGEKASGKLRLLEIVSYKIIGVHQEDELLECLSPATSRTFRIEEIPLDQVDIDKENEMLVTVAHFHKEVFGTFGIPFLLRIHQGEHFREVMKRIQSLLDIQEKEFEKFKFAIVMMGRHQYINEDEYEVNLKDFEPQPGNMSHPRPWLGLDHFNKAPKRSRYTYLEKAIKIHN
In the case of `CN1CCC(c2noc(-c3ccc(O)cc3)n2)CC1`, the dissociation constant (Kd) lay within 12 to 27 µM.
The same measure, in the same setting: the figure for `Oc1ccc(-c2nc(C3CCNCC3)no2)cc1` is 12 to 27 µM.

The target of the next assay is T1, Ubiquitin carboxyl-terminal hydrolase 7. Briefly: Inhibition of USP7 in human SJSA cells assessed as increase in ubiquitinated MDM2 level after 16 hrs in presence of MG132 by MSD assay. The format is cell-based.
Take `CCc1c(-c2ccc(C(=O)NC)nc2)cnc(N)c1-c1ccc(O)cc1`: the EC50 was 2.58 µM.
The same measure, in the same setting: the figure for `Nc1nc(N)c(-c2ccc(O)cc2)cc1-c1ccc(O)cc1` is 36.5 µM.
The same measure, in the same setting: the figure for `CCc1c(-c2ccc3[nH]ncc3c2)cnc(N)c1-c1ccc(O)cc1` is 0.3 µM; for `CCc1c(-c2ccc(O)cc2)cnc(N)c1-c1cccc(C#N)c1` it is 37.5 µM.

Another assay has the same target. Briefly: Inhibition of native full length C-terminal USP7 (unknown origin) using ubiquitin-Rho110 as substrate incubated for 1 hr by fluorescence assay.
`CCc1c(-c2cccc(C#N)c2)cnc(N)c1-c1ccc(O)cc1`: it took 2.5 µM to reach half-maximal inhibition (IC50). This counts as single-digit micromolar.
On the same count and under the same terms, as for `Nc1ncc(-c2ccc(O)cc2)cc1-c1ccc(O)cc1`, the figure is 11.1 µM; as for `CCc1c(-c2ccc(C(=O)NC)nc2)cnc(N)c1-c1ccc(O)cc1`, 1.34 µM.
On the same count and under the same terms, as for `Fc1cccc(OCC2CCNCC2)c1`, the figure is more than 2000 µM; as for `CCc1c(-c2ccc(O)cc2)cnc(N)c1-c1ccc(O)cc1`, 2.5 µM.
The same measure, in the same setting: as for `CCc1c(-c2ccc3cn[nH]c3c2)cnc(N)c1-c1ccc(O)cc1`, the figure is 0.48 µM; as for `CN1CCC(c2noc(-c3ccc(O)cc3)n2)CC1`, 79.2 µM.
In the case of `CCc1c(-c2ccc(O)cc2)cnc(N)c1-c1ccccc1`, half-maximal inhibition (IC50) was put at 22.4 µM.
Regarding `CCCc1c(-c2ccc(O)cc2)cnc(N)c1-c1ccc(O)cc1`, it took 13.6 µM to reach half-maximal inhibition (IC50).
Same read-out and setting: as for `CN1CCC(c2noc(-c3ccc(O)cc3)n2)C1` (stereo unspecified), the figure is 131 µM; as for `CCc1c(-c2ccccc2)cnc(N)c1-c1ccc(O)cc1`, 9.6 µM; as for `Oc1ccc(-c2nc(C3CCNCC3)no2)cc1`, 97.7 µM.
Still for that read-out and setting: the figure for `Nc1nc(N)c(-c2ccc(O)cc2)cc1-c1ccc(O)cc1` is 8.5 µM; for `Oc1ccc(-c2ncc(C3CCNCC3)o2)c(F)c1` it is 18.4 µM.
On the same count and under the same terms, as for `CCc1c(-c2ccc(O)cc2)cnc(N)c1-c1ccc2[nH]ncc2c1`, the figure is 0.61 µM; as for `Cc1c(-c2ccc(O)cc2)cnc(N)c1-c1ccc(O)cc1`, 7.6 µM.
For `CC(C)c1c(-c2ccc(O)cc2)cnc(N)c1-c1ccc(O)cc1`, the 50% inhibitory concentration (IC50) amounted to 21.4 µM. This IC50 is about 2.8-fold higher than that of the compound before.
Same read-out and setting: as for `Oc1ccc(-c2nc(C3CCNC3)no2)cc1` (stereo unspecified), the figure is 132 µM; as for `N#Cc1c(-c2ccc(O)cc2)cnc(N)c1-c1ccc(O)cc1`, more than 200 µM; as for `Oc1ccc(-c2nc(C3CCNCC3)co2)cc1`, 85.2 µM.
Still for that read-out and setting: the figure for `CCc1c(-c2ccc(O)cc2)cnc(N)c1-c1cccc(C#N)c1` is 5.2 µM; for `Nc1ncc(-c2ccccc2Cl)cc1-c1ccc(O)cc1` it is 33.2 µM.
In turn, `Oc1ccc(-c2ncc(C3CCNCC3)o2)cc1` displayed a half-inhibitory concentration (IC50) of 32.8 µM. The IC50 values of the last two compounds are within 1.5-fold of each other.
On the same count and under the same terms, as for `Oc1ccc(-c2cncc(-c3ccc(O)cc3)c2)cc1`, the figure is more than 50 µM; as for `CC(=O)Nc1cccc(-c2cnc(N)c(-c3ccc(O)cc3)c2)c1`, 15.1 µM.
